The NIST ThermoML archive (doi:10.1016/j.fluid.2008.10.003)
± gives the expanded uncertainty stated by the source.

Assay: isobaric coefficient of expansion; xn = mol fraction of the nth substance listed
Conditions: calorimetric method

CCCCCCO [hexan-1-ol] + CCCCCC
isobaric coefficient of expansion
Conditions | 5000 kPa | 10000 kPa | 15000 kPa | 20000 kPa | 25000 kPa | 30000 kPa | 35000 kPa | 40000 kPa | 45000 kPa | 50000 kPa
278.15 K, x1 = 0.0321 | 0.00122 ± 5.2e-05 1/K | 0.00117 ± 5e-05 1/K | 0.00114 ± 4.8e-05 1/K | 0.0011 ± 4.7e-05 1/K | 0.00107 ± 4.5e-05 1/K | 0.00104 ± 4.4e-05 1/K | 0.00101 ± 4.3e-05 1/K | 0.000982 ± 4.2e-05 1/K | 0.000957 ± 4.1e-05 1/K | 0.000935 ± 4e-05 1/K
278.15 K, x1 = 0.041 | 0.00122 ± 5.2e-05 1/K | 0.00118 ± 5e-05 1/K | 0.00114 ± 4.8e-05 1/K | 0.0011 ± 4.7e-05 1/K | 0.00107 ± 4.5e-05 1/K | 0.00104 ± 4.4e-05 1/K | 0.00101 ± 4.3e-05 1/K | 0.000977 ± 4.1e-05 1/K | 0.000958 ± 4.1e-05 1/K | 0.000937 ± 4e-05 1/K
278.15 K, x1 = 0.0946 | 0.00119 ± 5.1e-05 1/K | 0.00115 ± 4.9e-05 1/K | 0.00112 ± 4.7e-05 1/K | 0.00108 ± 4.6e-05 1/K | 0.00105 ± 4.5e-05 1/K | 0.00102 ± 4.3e-05 1/K | 0.000997 ± 4.2e-05 1/K | 0.000967 ± 4.1e-05 1/K | 0.000942 ± 4e-05 1/K | 0.000925 ± 3.9e-05 1/K
278.15 K, x1 = 0.1679 | 0.00116 ± 4.9e-05 1/K | 0.00112 ± 4.7e-05 1/K | 0.00108 ± 4.6e-05 1/K | 0.00105 ± 4.5e-05 1/K | 0.00102 ± 4.3e-05 1/K | 0.000996 ± 4.2e-05 1/K | 0.000974 ± 4.1e-05 1/K | 0.000947 ± 4e-05 1/K | 0.000923 ± 3.9e-05 1/K | 0.000907 ± 3.8e-05 1/K
278.15 K, x1 = 0.2153 | 0.00114 ± 4.8e-05 1/K | 0.0011 ± 4.7e-05 1/K | 0.00107 ± 4.5e-05 1/K | 0.00103 ± 4.4e-05 1/K | 0.00101 ± 4.3e-05 1/K | 0.000979 ± 4.2e-05 1/K | 0.000958 ± 4.1e-05 1/K | 0.000928 ± 3.9e-05 1/K | 0.000909 ± 3.9e-05 1/K | 0.000892 ± 3.8e-05 1/K
278.15 K, x1 = 0.3016 | 0.0011 ± 4.7e-05 1/K | 0.00106 ± 4.5e-05 1/K | 0.00103 ± 4.4e-05 1/K | 0.000999 ± 4.2e-05 1/K | 0.000978 ± 4.1e-05 1/K | 0.000953 ± 4e-05 1/K | 0.000932 ± 4e-05 1/K | 0.000911 ± 3.9e-05 1/K | 0.000887 ± 3.8e-05 1/K | 0.000868 ± 3.7e-05 1/K
278.15 K, x1 = 0.4075 | 0.00105 ± 4.5e-05 1/K | 0.00102 ± 4.3e-05 1/K | 0.000995 ± 4.2e-05 1/K | 0.000967 ± 4.1e-05 1/K | 0.000946 ± 4e-05 1/K | 0.000921 ± 3.9e-05 1/K | 0.000903 ± 3.8e-05 1/K | 0.000877 ± 3.7e-05 1/K | 0.000859 ± 3.6e-05 1/K | 0.000844 ± 3.6e-05 1/K
278.15 K, x1 = 0.503 | 0.00101 ± 4.3e-05 1/K | 0.000989 ± 4.2e-05 1/K | 0.000961 ± 4.1e-05 1/K | 0.00094 ± 4e-05 1/K | 0.000917 ± 3.9e-05 1/K | 0.000893 ± 3.8e-05 1/K | 0.000876 ± 3.7e-05 1/K | 0.000851 ± 3.6e-05 1/K | 0.000835 ± 3.5e-05 1/K | 0.00082 ± 3.5e-05 1/K
278.15 K, x1 = 0.594 | 0.000978 ± 4.1e-05 1/K | 0.000951 ± 4e-05 1/K | 0.000932 ± 4e-05 1/K | 0.000902 ± 3.8e-05 1/K | 0.000887 ± 3.8e-05 1/K | 0.000864 ± 3.7e-05 1/K | 0.00085 ± 3.6e-05 1/K | 0.000831 ± 3.5e-05 1/K | 0.000804 ± 3.4e-05 1/K | 0.0008 ± 3.4e-05 1/K
278.15 K, x1 = 0.6827 | 0.000937 ± 4e-05 1/K | 0.000916 ± 3.9e-05 1/K | 0.000897 ± 3.8e-05 1/K | 0.000874 ± 3.7e-05 1/K | 0.000857 ± 3.6e-05 1/K | 0.00084 ± 3.6e-05 1/K | 0.000824 ± 3.5e-05 1/K | 0.000804 ± 3.4e-05 1/K | 0.000791 ± 3.4e-05 1/K | 0.000775 ± 3.3e-05 1/K
278.15 K, x1 = 0.8013 | 0.000892 ± 3.8e-05 1/K | 0.000865 ± 3.7e-05 1/K | 0.000857 ± 3.6e-05 1/K | 0.000834 ± 3.5e-05 1/K | 0.000819 ± 3.5e-05 1/K | 0.000806 ± 3.4e-05 1/K | 0.000784 ± 3.3e-05 1/K | 0.000769 ± 3.3e-05 1/K | 0.000756 ± 3.2e-05 1/K | 0.000745 ± 3.2e-05 1/K
278.15 K, x1 = 0.8934 | 0.00085 ± 3.6e-05 1/K | 0.000837 ± 3.6e-05 1/K | 0.000817 ± 3.5e-05 1/K | 0.000803 ± 3.4e-05 1/K | 0.000789 ± 3.3e-05 1/K | 0.000775 ± 3.3e-05 1/K | 0.000756 ± 3.2e-05 1/K | 0.000751 ± 3.2e-05 1/K | 0.000733 ± 3.1e-05 1/K | 0.000723 ± 3.1e-05 1/K
278.15 K, x1 = 1 | 0.000821 ± 3.5e-05 1/K | 0.0008 ± 3.4e-05 1/K | 0.000788 ± 3.3e-05 1/K | 0.000778 ± 3.3e-05 1/K | 0.00076 ± 3.2e-05 1/K | 0.000748 ± 3.2e-05 1/K | 0.000733 ± 3.1e-05 1/K | 0.000723 ± 3.1e-05 1/K | 0.000716 ± 3e-05 1/K | 0.000708 ± 3e-05 1/K
298.15 K, x1 = 0.0321 | 0.0013 ± 5.5e-05 1/K | 0.00124 ± 5.3e-05 1/K | 0.0012 ± 5.1e-05 1/K | 0.00115 ± 4.9e-05 1/K | 0.00111 ± 4.7e-05 1/K | 0.00107 ± 4.5e-05 1/K | 0.00104 ± 4.4e-05 1/K | 0.00101 ± 4.3e-05 1/K | 0.00098 ± 4.2e-05 1/K | 0.000951 ± 4e-05 1/K
298.15 K, x1 = 0.041 | 0.0013 ± 5.5e-05 1/K | 0.00124 ± 5.3e-05 1/K | 0.0012 ± 5.1e-05 1/K | 0.00115 ± 4.9e-05 1/K | 0.00111 ± 4.7e-05 1/K | 0.00108 ± 4.6e-05 1/K | 0.00104 ± 4.4e-05 1/K | 0.00101 ± 4.3e-05 1/K | 0.000985 ± 4.2e-05 1/K | 0.000959 ± 4.1e-05 1/K
298.15 K, x1 = 0.0946 | 0.00127 ± 5.4e-05 1/K | 0.00122 ± 5.2e-05 1/K | 0.00118 ± 5e-05 1/K | 0.00113 ± 4.8e-05 1/K | 0.0011 ± 4.6e-05 1/K | 0.00106 ± 4.5e-05 1/K | 0.00103 ± 4.4e-05 1/K | 0.000999 ± 4.2e-05 1/K | 0.000969 ± 4.1e-05 1/K | 0.000946 ± 4e-05 1/K
298.15 K, x1 = 0.1679 | 0.00124 ± 5.2e-05 1/K | 0.00119 ± 5e-05 1/K | 0.00115 ± 4.9e-05 1/K | 0.0011 ± 4.7e-05 1/K | 0.00107 ± 4.5e-05 1/K | 0.00104 ± 4.4e-05 1/K | 0.00101 ± 4.3e-05 1/K | 0.000977 ± 4.1e-05 1/K | 0.00095 ± 4e-05 1/K | 0.000926 ± 3.9e-05 1/K
298.15 K, x1 = 0.2153 | 0.00121 ± 5.1e-05 1/K | 0.00116 ± 4.9e-05 1/K | 0.00112 ± 4.8e-05 1/K | 0.00108 ± 4.6e-05 1/K | 0.00105 ± 4.5e-05 1/K | 0.00102 ± 4.3e-05 1/K | 0.000988 ± 4.2e-05 1/K | 0.000962 ± 4.1e-05 1/K | 0.000936 ± 4e-05 1/K | 0.000913 ± 3.9e-05 1/K
298.15 K, x1 = 0.3016 | 0.00117 ± 4.9e-05 1/K | 0.00112 ± 4.8e-05 1/K | 0.00109 ± 4.6e-05 1/K | 0.00105 ± 4.4e-05 1/K | 0.00101 ± 4.3e-05 1/K | 0.000984 ± 4.2e-05 1/K | 0.000958 ± 4.1e-05 1/K | 0.000935 ± 4e-05 1/K | 0.000908 ± 3.9e-05 1/K | 0.000883 ± 3.7e-05 1/K
298.15 K, x1 = 0.4075 | 0.00112 ± 4.8e-05 1/K | 0.00108 ± 4.6e-05 1/K | 0.00105 ± 4.5e-05 1/K | 0.00102 ± 4.3e-05 1/K | 0.000986 ± 4.2e-05 1/K | 0.000957 ± 4.1e-05 1/K | 0.00093 ± 3.9e-05 1/K | 0.000912 ± 3.9e-05 1/K | 0.000888 ± 3.8e-05 1/K | 0.000868 ± 3.7e-05 1/K
298.15 K, x1 = 0.503 | 0.00108 ± 4.6e-05 1/K | 0.00104 ± 4.4e-05 1/K | 0.00101 ± 4.3e-05 1/K | 0.000982 ± 4.2e-05 1/K | 0.000952 ± 4e-05 1/K | 0.000928 ± 3.9e-05 1/K | 0.000904 ± 3.8e-05 1/K | 0.000879 ± 3.7e-05 1/K | 0.000864 ± 3.7e-05 1/K | 0.000844 ± 3.6e-05 1/K
298.15 K, x1 = 0.594 | 0.00103 ± 4.4e-05 1/K | 0.001 ± 4.2e-05 1/K | 0.000975 ± 4.1e-05 1/K | 0.000944 ± 4e-05 1/K | 0.00092 ± 3.9e-05 1/K | 0.000897 ± 3.8e-05 1/K | 0.000873 ± 3.7e-05 1/K | 0.000856 ± 3.6e-05 1/K | 0.000836 ± 3.5e-05 1/K | 0.000819 ± 3.5e-05 1/K
298.15 K, x1 = 0.6827 | 0.000993 ± 4.2e-05 1/K | 0.000965 ± 4.1e-05 1/K | 0.000939 ± 4e-05 1/K | 0.000913 ± 3.9e-05 1/K | 0.00089 ± 3.8e-05 1/K | 0.000868 ± 3.7e-05 1/K | 0.000846 ± 3.6e-05 1/K | 0.000827 ± 3.5e-05 1/K | 0.000812 ± 3.4e-05 1/K | 0.000794 ± 3.4e-05 1/K
298.15 K, x1 = 0.8013 | 0.000938 ± 4e-05 1/K | 0.000913 ± 3.9e-05 1/K | 0.00089 ± 3.8e-05 1/K | 0.000868 ± 3.7e-05 1/K | 0.000848 ± 3.6e-05 1/K | 0.00083 ± 3.5e-05 1/K | 0.000809 ± 3.4e-05 1/K | 0.000792 ± 3.4e-05 1/K | 0.000778 ± 3.3e-05 1/K | 0.000763 ± 3.2e-05 1/K
298.15 K, x1 = 0.8934 | 0.000896 ± 3.8e-05 1/K | 0.000874 ± 3.7e-05 1/K | 0.000855 ± 3.6e-05 1/K | 0.000835 ± 3.5e-05 1/K | 0.000816 ± 3.5e-05 1/K | 0.000797 ± 3.4e-05 1/K | 0.000781 ± 3.3e-05 1/K | 0.000763 ± 3.2e-05 1/K | 0.000751 ± 3.2e-05 1/K | 0.000739 ± 3.1e-05 1/K
298.15 K, x1 = 1 | 0.00085 ± 3.6e-05 1/K | 0.000832 ± 3.5e-05 1/K | 0.000812 ± 3.4e-05 1/K | 0.000796 ± 3.4e-05 1/K | 0.00078 ± 3.3e-05 1/K | 0.000764 ± 3.2e-05 1/K | 0.000749 ± 3.2e-05 1/K | 0.000734 ± 3.1e-05 1/K | 0.000724 ± 3.1e-05 1/K | 0.000712 ± 3e-05 1/K
